Measurements as given in publication PMC3131601, “A Novel Cold-Active Lipase from Candida albicans: Cloning, Expression and Characterization of the Recombinant Enzyme” (International Journal of Molecular Sciences, 2011).

Test system: T1, Lip5-DM (recombinant Lip5, CALip5)
T1 construct: putative 14-residue signal peptide removed; secreted from Pichia pastoris X-33 (pGAPZalphaA), about 50 kDa
Test: p-nitrophenol release at […] nm, Lineweaver-Burk
Format: biochemical, Candida albicans
Details: 100 mM Na2HPO4-NaH2PO4 pH 6.0; kinetics run at 5, 15 and 25 °C, temperature of table values not stated

Point of comparison: CCCCCCCCCCCCCCCC(=O)Oc1ccc([N+](=O)[O-])cc1 [C16, p-NP-palmitate], Km 360 µM. Against it:
- CCCCCCCC(=O)Oc1ccc([N+](=O)[O-])cc1 [C8, p-NP-caprylate] — within 1.5-fold, 270 µM
- CCCC(=O)Oc1ccc([N+](=O)[O-])cc1 [C4, p-NP-butyrate] — within 1.5-fold, 410 µM
- CCCCCCCCCCCC(=O)Oc1ccc([N+](=O)[O-])cc1 [C12, p-NP-laurate] — within 1.5-fold, 500 µM
